In brackets after ≈: the same amount, converted by molar mass.
Assays:
[1] = Metabolic stability in human microsomes assessed as compound remaining after 30 mins; format: ADME, Microsome; conditions: read-out: Stability
[2] = Half life in mouse microsomes; format: ADME, Microsome
[3] = system: Mycobacterium tuberculosis; experiment: microbe, parasite or virus in culture; conditions: H37Rv, 168 h
Description: Antitubercular activity against Mycobacterium tuberculosis H37Rv in aerobic conditions after 7 days by microplate-based alamar blue assay

[4] = Metabolic stability in mouse microsomes assessed as compound remaining after 30 mins; format: ADME, Microsome; conditions: read-out: Stability
[5] = molecular target: T1, Nuclear receptor subfamily 1 group I member 2 (Homo sapiens, UniProt O75469); experiment: Activation of PXR in human DPX2 cells at <100 uM after 24 hrs by luciferase reporter gene assay; format: cell-based; conditions: dpx2, 24 h
T1 sequence (O75469 whole entry): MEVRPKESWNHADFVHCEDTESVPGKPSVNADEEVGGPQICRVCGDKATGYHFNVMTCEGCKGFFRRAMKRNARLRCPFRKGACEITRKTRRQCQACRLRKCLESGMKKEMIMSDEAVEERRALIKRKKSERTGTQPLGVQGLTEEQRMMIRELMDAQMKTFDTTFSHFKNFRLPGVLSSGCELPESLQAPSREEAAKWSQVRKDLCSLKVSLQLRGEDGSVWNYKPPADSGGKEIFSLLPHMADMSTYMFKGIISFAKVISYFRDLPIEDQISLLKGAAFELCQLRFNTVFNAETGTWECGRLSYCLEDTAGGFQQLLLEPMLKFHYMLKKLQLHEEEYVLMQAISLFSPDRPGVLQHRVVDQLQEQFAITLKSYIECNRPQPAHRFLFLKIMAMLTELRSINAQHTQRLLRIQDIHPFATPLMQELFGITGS

[6] = Half life in human microsomes; format: ADME, Microsome
[7] = Inhibition of Mycobacterium tuberculosis wild type RNA polymerase by rolling circle transcription assay in the absence of sigmaA factor
[8] = Inhibition of Mycobacterium tuberculosis wild type RNA polymerase by rolling circle transcription assay in the presence of sigmaA factor
[9] = system: Mycobacterium tuberculosis; experiment: microbe, parasite or virus in culture; conditions: H37Rv, 264 h
Description: Antitubercular activity against Mycobacterium tuberculosis H37Rv in anaerobic conditions after 11 days by luminescnece-based low-oxygen recovery assay

[10] = Half life in human; format: ADME, organism-based; conditions: in vivo
[11] = molecular target: T2, PXR (NR1I2) (Homo sapiens, UniProt O75469); experiment: Activation of PXR in human DPX2 cells at 100 uM after 24 hrs by luciferase reporter gene assay relative to control; format: cell-based; conditions: read-out: FC
T2 sequence (O75469 whole entry): T1 sequence (O75469 whole entry)

[12] = Cytotoxicity against human DPX2 cells expressing PXR assessed as decrease in cell viability at 100 uM after 24 hrs relative to control; format: ADME, cell-based; conditions: dpx2, 24 h
[13] = molecular target: T2, PXR (NR1I2); experiment: Activation of PXR in human DPX2 cells after 24 hrs by luciferase reporter gene assay relative to control; format: cell-based; conditions: read-out: FC
[14] = molecular target: T1, Nuclear receptor subfamily 1 group I member 2; experiment: Activation of PXR in human DPX2 cells after 24 hrs by luciferase reporter gene assay; format: cell-based
[15] = Cytotoxicity against human DPX2 cells expressing PXR assessed as decrease in cell viability at 25 uM after 24 hrs; format: ADME, cell-based; conditions: dpx2, 24 h
[16] = Tmax in BALB/c mouse at 10 mg/kg, po administered qd for 5 days; format: ADME, organism-based; set-up: dose 10 mg/kg, route oral; conditions: in vivo
[17] = T>MIC in BALB/c mouse at 10 mg/kg, po administered qd for 5 days; format: functional
[18] = Cmax in BALB/c mouse at 10 mg/kg, po administered as single dose; format: ADME, organism-based; set-up: dose 10 mg/kg, route oral; conditions: in vivo
[19] = Cmax in BALB/c mouse at 10 mg/kg, po administered qd for 5 days; format: ADME, organism-based; set-up: dose 10 mg/kg, route oral; conditions: in vivo
[20] = Cytotoxicity against human DPX2 cells expressing PXR assessed as decrease in cell viability at >6.25 uM after 24 hrs; format: ADME, cell-based; conditions: dpx2, 24 h
[21] = system: Blood; experiment: Drug uptake in BALB/c mouse blood at 10 mg/kg, po administered as single dose; format: ADME, organism-based; set-up: dose 10 mg/kg, route oral; conditions: in vivo, BLD = below limit of detection
[22] = Drug uptake in BALB/c mouse lung at 10mg/kg, po administered qd for 5 days; format: ADME, organism-based; conditions: read-out: Drug uptake
[23] = system: Mus musculus; experiment: Ratio of Cmax in BALB/c mouse at 10 mg/kg, po administered qd for 5 days to Cmax in BALB/c mouse at 10 mg/kg, po administered as single dose; format: ADME, organism-based; conditions: in vivo, 120 h
[24] = Tmax in BALB/c mouse at 10 mg/kg, po administered as single dose; format: ADME, organism-based; set-up: dose 10 mg/kg, route oral; conditions: in vivo
[25] = Selectivity index, ratio of cytotoxicity against human DPX2 cells to IC50 for Mycobacterium wild type RNA polymerase; format: toxicity, cell-based; conditions: read-out: Selectivity Index
[26] = molecular target: T2, PXR (NR1I2); experiment: Activation of PXR in human DPX2 cells at 6.25 uM after 24 hrs by luciferase reporter gene assay relative to control; format: cell-based; conditions: read-out: FC
[27] = system: Blood; experiment: Drug uptake in BALB/c mouse blood at 10 mg/kg, po administered qd for 5 days; format: ADME, organism-based; set-up: dose 10 mg/kg, route oral; conditions: in vivo, 120 h
[28] = Apparent plasma half life in BALB/c mouse at 10 mg/kg, po administered qd for 5 days; format: ADME, organism-based; set-up: dose 10 mg/kg, route oral; conditions: read-out: t1/2(app) (converted)

CO[C@H]1/C=C/O[C@@]2(C)Oc3c(C)c(O)c4c(=O)c(c5oc6cc(N7CCN(CC(C)C)CC7)cc(O)c6nc-5c4c3C2=O)NC(=O)/C(C)=C\C=C\[C@H](C)[C@H](O)[C@@H](C)[C@@H](O)[C@@H](C)[C@H](OC(C)=O)[C@@H]1C [RIFALAZIL]
remaining at 0.5 h [1]: 73%
half-life [2]: 0.883 h
MIC90 [3]: < 0.004 µM
remaining at 0.5 h [4]: 67%
Activity [5]: Not Active
half-life [6]: 1.08 h
IC50 [7]: 0.0115 µM
IC50 [8]: < 0.01 µM
MIC90 [9]: < 0.017 µM
half-life [10]: 60 h
fold induction at 24 h, 100 µM [11]: 2
fold change (FC) [12]: 2

CN[C@@H]1[C@H](O[C@H]2[C@H](O[C@H]3[C@H](O)[C@@H](O)[C@H](N=C(N)N)[C@@H](O)[C@@H]3N=C(N)N)O[C@@H](C)[C@]2(O)C=O)O[C@@H](CO)[C@H](O)[C@H]1O [STREPTOMYCIN]
MIC90 [3]: 0.46 µM (≈ 0.268 µg/mL)

CO[C@H]1/C=C/O[C@@]2(C)Oc3c(C)c(O)c4c(=O)c(c5oc6cccc(OCCCCN7CCN(C(=O)Cn8ccnc8)CC7)c6nc-5c4c3C2=O)NC(=O)/C(C)=C\C=C\[C@H](C)[C@H](O)[C@@H](C)[C@@H](O)[C@@H](C)[C@H](OC(C)=O)[C@@H]1C
fold induction at 24 h [13]: 5.9
MIC90 [3]: 0.07 µM (≈ 0.0734 µg/mL)
EC50 [14]: 5.5 µM
Activity [15]: Toxic
IC50 [7]: < 0.01 µM
IC50 [8]: < 0.01 µM
MIC90 [9]: 0.4 µM (≈ 0.42 µg/mL)

NNC(=O)c1ccncc1 [ISONIAZID]
MIC90 [3]: 0.24 µM (≈ 0.0329 µg/mL)
MIC90 [9]: > 128 µM

COc1c(N2C[C@@H]3CCCN[C@@H]3C2)c(F)cc2c(=O)c(C(=O)O)cn(C3CC3)c12 [MOXIFLOXACIN]
MIC90 [3]: 0.46 µM (≈ 0.185 µg/mL)

CO[C@H]1/C=C/O[C@@]2(C)Oc3c(C)c(O)c4c(O)c(c(/C=N/N5CCN(C)CC5)c(O)c4c3C2=O)NC(=O)/C(C)=C\C=C\[C@H](C)[C@H](O)[C@@H](C)[C@@H](O)[C@@H](C)[C@H](OC(C)=O)[C@@H]1C [RIFAMPIN]
MIC90 [3]: 0.13 µM (≈ 0.107 µg/mL)
MIC90 [9]: 0.46 µM (≈ 0.379 µg/mL)

CCN(CC)CCOc1cccc2oc3c4c(=O)c5c(O)c(C)c6c(c5c-3nc12)C(=O)[C@@](C)(O/C=C/[C@H](OC)[C@@H](C)[C@@H](OC(C)=O)[C@H](C)[C@H](O)[C@H](C)[C@@H](O)[C@@H](C)/C=C/C=C(/C)C(=O)N4)O6
remaining at 0.5 h [1]: 68%
Tmax [16]: 2 h
half-life [2]: 2.35 h
T>MIC [17]: 4 h
Cmax [18]: 0.0185 µM
Cmax [19]: 1.74 µM
Activity [20]: Toxic
MIC90 [3]: 0.02 µM (≈ 0.018 µg/mL)
remaining at 0.5 h [4]: 86%
Drug uptake [21]: BLD
concentration at 120 h [22]: 0.4 µM
half-life [6]: 0.9 h
Ratio [23]: 100
Tmax [24]: 1 h
IC50 [7]: < 0.01 µM
IC50 [8]: < 0.01 µM
selectivity ratio [25]: 1000
fold induction at 24 h, 6.25 µM [26]: 3
Drug uptake [27]: Active
MIC90 [9]: 0.37 µM (≈ 0.333 µg/mL)
half-life [28]: 1 h

O=[N+]([O-])c1cn2c(n1)OC[C@@H](OCc1ccc(OC(F)(F)F)cc1)C2 [PRETOMANID]
MIC90 [9]: 2.53 µM (≈ 0.909 µg/mL)

CO[C@H]1/C=C/O[C@@]2(C)Oc3c(C)c(O)c4c(=O)c(c5oc6cccc(OCCCCN7CCN(CCn8ccnc8)CC7)c6nc-5c4c3C2=O)NC(=O)/C(C)=C\C=C\[C@H](C)[C@H](O)[C@@H](C)[C@@H](O)[C@@H](C)[C@H](OC(C)=O)[C@@H]1C
Activity [20]: Toxic
MIC90 [3]: 0.08 µM (≈ 0.0828 µg/mL)
IC50 [7]: < 0.01 µM
IC50 [8]: < 0.01 µM
selectivity ratio [25]: 1000
fold induction at 24 h, 6.25 µM [26]: 3
MIC90 [9]: 0.35 µM (≈ 0.362 µg/mL)

Reference: ChEMBL document CHEMBL2046330, “Structure-based design of novel benzoxazinorifamycins with potent binding affinity to wild-type and rifampin-resistant mutant Mycobacterium tuberculosis RNA polymerases” (J Med Chem, 2012)
